In patent US20240116877A1, “KIT KINASE INHIBITORS AND METHODS OF USE THEREOF” (Deciphera Pharmaceuticals, LLC, priority 2021, published 2024):
Read-outs that look alike come from different tables or passages of the source.

Assays:
c-KIT kinase (uKIT) = c-KIT kinase (uKIT) (Homo sapiens (Human), UniProt P10721); assay: Biochemical Assay for uKIT (coupled pyruvate kinase/lactate dehydrogenase assay); details: Inhibition of biochemical activity of uKIT kinase; 1 mM ATP
Procedure: Biochemical Assay for uKIT
Activity of c-KIT kinase (SEQ. ID NO. 1 or SEQ. ID NO. 2) was determined spectroscopically using a coupled pyruvate kinase/lactate dehydrogenase assay that continuously monitors the ATP hydrolysis-dependent oxidation of NADH (e.g., Schindler et al. Science (2000) 289: 1938-1942). Assays were conducted in 384-well plates (100 μL final volume) using 16 nM (Decode, SEQ ID No. 1) or 4.36 nM (Signal Chem, SEQ. ID No. 2), 0.7 mg/mL PE4Y substrate, 1.5 units pyruvate kinase, 2.1 units lactate dehydrogenase, 1 mM phosphoenol pyruvate, 0.28 mM NADH and 1 mM ATP in assay buffer (100 mM Tris, pH 7.5, 15 mM MgCl2, 0.5 mM DTT, 0.1% octyl-glucoside, 0.002% (w/v) BSA, and 0.002% Triton X-100). Inhibition of KIT was measured by adding serial diluted test compound (final assay concentration of 1% DMSO). A decrease in absorption at 340 nm was monitored continuously for 6 h at 30° C. on a multi-mode microplate reader (BioTek). The reaction rate was calculated using the 2-3 h time frame. The reaction rate at each concentration of compound was converted to percent inhibition using controls (i.e., reaction with no test compound and reaction with a known inhibitor) and IC50 values were calculated using software routines in Prism (GraphPad software).

GIST 430 cells = assay: GIST 430 Cell Proliferation Assay (resazurin); format: cell-based; details: Homo sapiens; GIST430 cell proliferation
Procedure: GIST 430 Cell Proliferation Assay
(§1) A serial dilution of test compound was dispensed into a 96-well black clear bottom plate (Corning, Corning, NY). Five thousand cells were added per well in 200 μL complete growth medium. Plates were incubated for 115 h at 37 degrees Celsius, 5% CO2, 95% humidity. At the end of the incubation period 40 μL of a 440 μM solution of resazurin (Sigma, St. Louis, MO) in PBS was added to each well and incubated for an additional 5 h at 37 degrees Celsius, 5% CO2, 95% humidity. Plates were read on a Synergy2 reader (Biotek, Winooski, VT) using an excitation of 540 nm and an emission of 600 nm. Data was analyzed using Prism software (Graphpad, San Diego, CA) to calculate IC50 values.

Ba/F3 KIT mutant cells = assay: Ba/F3 mutant KIT Cell Proliferation Assays (resazurin); format: cell-based; details: Mus musculus, BaF3
Procedure: Ba/F3 KIT Mutant Cell Line Transduction and Expansion
Several different KIT cDNA encoding various primary and secondary mutations were cloned into a pLV(Exp]-CMV>(cDNA):IRES:puro vector. These vectors were constructed and packaged by VectorBuilder.
Exponentially grown Ba/F3 cells (1×10^6 cells in 1 ml medium) were infected with 60 μl of viral suspension in a 6-well plate in the presence of mIL-3 (10 ng/ml) and polybrene (7.5 μg/ml) (Vector Builder) and incubated for 16 h. After 16 h, the cells were centrifuged, and viral supernatant was discarded. The cells were then re-suspended in fresh medium and allowed to recover for another day. After 72 h post infection, the cells were seeded with complete medium with mIL-3 and with 1 μg/ml puromycin added to medium for selection. After 48 h, cells without viral infection die, whereas successfully transduced cells were collected and changed to fresh medium with 5 ng/ml of IL-3. After a week or two with gradual withdrawal of mIL3 the cells that can continue to proliferate in the absence of mIL3 were exponentially expanded and were frozen down for banking.
Ba/F3 mutant KIT Cell Proliferation Assays
as §1, with “a 384-well” for “a 96-well”, “NY). Six hundred and twenty-five” for “NY). Five thousand”, “in 50” for “in 200”, “for 68” for “for 115”, “at 37° C.,” for “at 37 degrees Celsius,”, “period 10” for “period 40”

[1] = Ba/F3 KIT AYdup-V654A mutant cell proliferation, read-out: AYdup-V654A IC50
[2] = Ba/F3 KIT exon11del-V654A mutant cell proliferation, read-out: exon11del-V654A IC50
[3] = Ba/F3 KIT exon11del-Y823D mutant cell proliferation, read-out: exon11del-Y823D IC50

Sequence of c-KIT kinase (uKIT) (P10721 other isoform, or with tags, fused parts or gaps): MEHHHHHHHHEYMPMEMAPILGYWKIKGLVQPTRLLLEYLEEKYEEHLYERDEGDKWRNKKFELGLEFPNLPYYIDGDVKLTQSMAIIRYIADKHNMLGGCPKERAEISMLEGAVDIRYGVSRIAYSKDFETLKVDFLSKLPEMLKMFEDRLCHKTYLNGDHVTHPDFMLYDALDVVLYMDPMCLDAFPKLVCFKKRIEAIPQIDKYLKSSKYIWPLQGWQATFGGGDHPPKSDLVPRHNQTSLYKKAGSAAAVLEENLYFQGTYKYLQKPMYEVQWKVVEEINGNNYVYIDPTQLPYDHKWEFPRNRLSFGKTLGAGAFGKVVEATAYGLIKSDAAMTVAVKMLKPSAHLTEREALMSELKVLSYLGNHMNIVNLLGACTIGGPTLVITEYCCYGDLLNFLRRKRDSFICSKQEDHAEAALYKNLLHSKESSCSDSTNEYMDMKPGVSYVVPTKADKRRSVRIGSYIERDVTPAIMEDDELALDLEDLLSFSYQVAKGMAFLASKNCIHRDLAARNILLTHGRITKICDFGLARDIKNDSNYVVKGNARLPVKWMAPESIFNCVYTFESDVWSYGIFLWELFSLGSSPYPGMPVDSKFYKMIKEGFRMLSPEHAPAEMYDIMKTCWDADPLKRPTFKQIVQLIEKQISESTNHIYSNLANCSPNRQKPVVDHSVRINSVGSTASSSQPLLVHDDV

IC50 (c-KIT kinase (uKIT)) [nM]	IC50 (Ba/F3 KIT mutant cells; [1]) [nM]	IC50 (Ba/F3 KIT mutant cells; [2]) [nM]	IC50 (Ba/F3 KIT mutant cells; [3]) [nM]	IC50 (Ba/F3 KIT mutant cells; Ba/F3 KIT AYdup mutant cell proliferation, read-out: AYdup IC50) [nM]	IC50 (Ba/F3 KIT mutant cells; Ba/F3 KIT AYdup-D816G mutant cell proliferation, read-out: AYdup-D816G IC50) [nM]	Structure (SMILES)	IC50 (GIST 430 cells) [nM]
100 to 1000	–	–	–	–	–	COCCOc1cc(F)c2c(Nc3ccc(NC(=O)CCC(C)(C)F)cc3)ncnc2c1 [Example 23]	100 to 1000
–	100 to 1000	> 1000	> 1000	–	–	COCCOc1cc(F)c2c(Nc3ccc(NC(=O)CC(=O)N4[C@H](C)COC[C@@H]4C)cc3)ncnc2c1 [Example 212]	–
100 to 1000	> 1000	> 1000	> 1000	–	–	COCCOc1cc(F)c2c(Nc3ccc(NC(=O)CC(=O)N4[C@@H](C)COC[C@@H]4C)cc3)ncnc2c1 [Example 199]	–
10 to 100	100 to 1000	100 to 1000	100 to 1000	–	–	COCCOc1ccc2ncnc(Nc3ccc(NC(=O)NCCC(C)(C)C#N)cc3)c2c1F [Example 216]	–
> 1000	> 1000	> 1000	> 1000	–	–	COCCOc1ccc2ncnc(Nc3ccc(NC(=O)CC(=O)NC(C)(C)C)cc3)c2c1F [Example 208]	–
10 to 100	–	–	–	–	–	COCCOc1cc2ncnc(Nc3ccc(NC(=O)NCCC(C)(C)F)cc3)c2cc1OCCOC [Example 222]	–
100 to 1000	–	–	–	–	–	COCCOc1ccc2c(Nc3ccc(NC(=O)NCCC(C)(C)C#N)cn3)ncnc2c1 [Example 226]	–
100 to 1000	100 to 1000	> 1000	> 1000	–	–	COc1cc2ncnc(Nc3ccc(NC(=O)CC(=O)NCC(C)(C)C)cc3)c2cc1OCCCN1CCOCC1 [Example 206]	–
10 to 100	–	–	–	–	–	CC(C)(F)CCNC(=O)Nc1ccc(Nc2ncnc3cc(OCC(=O)O)cc(F)c23)cc1 [Example 224]	–
–	10 to 100	10 to 100	10 to 100	≤ 10	10 to 100	CC(C)(F)CCNC(=O)Nc1ccc(Nc2ncnc3cc(O[C@H]4CCOC4)cc(F)c23)cc1 [Example 160]	10 to 100
–	> 1000	> 1000	100 to 1000	–	–	CC(C)(F)CCNC(=O)Nc1ccc(Nc2ncnc3cc(O[C@@H]4CCOC4)cc(F)c23)cc1 [Example 180]	> 1000
100 to 1000	100 to 1000	> 1000	> 1000	–	–	COCCOc1ccc2ncnc(Nc3ccc(NC(=O)CC(=O)NC4CCC4)cc3)c2c1F [Example 207]	–
≤ 10	–	–	–	–	–	COCCOc1ccc2c(Nc3ccc(NC(=O)NCCC(C)(C)OC)cc3)ncnc2c1 [Example 225]	–
10 to 100	–	–	–	–	–	COCCOc1ccc2c(Nc3ccc(NC(=O)NCCC(C)(C)OC)cn3)ncnc2c1 [Example 228]	–
> 1000	–	> 1000	–	–	–	CN(C)CCOc1cc(F)c2c(Nc3ccc(NC(=O)NCCC(C)(C)C#N)cc3)ncnc2c1 [Example 80]	–
100 to 1000	> 1000	> 1000	> 1000	–	–	COCCOc1ccc2ncnc(Nc3ccc(NC(=O)NCCC(C)(C)F)cc3)c2c1F [Example 200]	–
≤ 10	100 to 1000	100 to 1000	10 to 100	–	–	COCCOc1ccc2c(Nc3ccc(NC(=O)NCCC(C)(C)F)cc3)ncnc2c1 [Example 220]	–
10 to 100	10 to 100	10 to 100	10 to 100	–	–	COc1cc(F)c2c(Nc3ccc(NC(=O)NCCC(C)(C)C#N)cc3)ncnc2c1 [Example 219]	–
10 to 100	100 to 1000	> 1000	> 1000	–	–	COc1cc2ncnc(Nc3ccc(NC(=O)CC(=O)NCC(C)(C)C)cc3)c2cc1OC [Example 213]	–

IC50 (c-KIT kinase (uKIT)) [nM]	IC50 (Ba/F3 KIT mutant cells; [1]) [nM]	IC50 (Ba/F3 KIT mutant cells; [2]) [nM]	IC50 (Ba/F3 KIT mutant cells; [3]) [nM]	IC50 (Ba/F3 KIT mutant cells; Ba/F3 KIT AYdup mutant cell proliferation, read-out: AYdup IC50) [nM]	IC50 (Ba/F3 KIT mutant cells; Ba/F3 KIT AYdup-D816G mutant cell proliferation, read-out: AYdup-D816G IC50) [nM]	Structure (SMILES)	IC50 (GIST 430 cells) [nM]
10 to 100	100 to 1000	100 to 1000	100 to 1000	–	–	COCCOc1ccc2ncnc(Nc3ccc(NC(=O)NCCC(C)(C)OC)cc3)c2c1F [Example 215]	–
100 to 1000	100 to 1000	> 1000	> 1000	–	–	COCCOc1ccc2ncnc(Nc3ccc(NC(=O)CC(=O)NCC(C)(C)C)cc3)c2c1F [Example 217]	–
10 to 100	10 to 100	100 to 1000	10 to 100	–	–	COCCOc1cc(OC)c2c(Nc3ccc(NC(=O)CC(=O)NCC(C)(C)C)cc3)ncnc2c1 [Example 204]	–
100 to 1000	100 to 1000	> 1000	> 1000	–	–	COCCOc1ccc2ncnc(Nc3ccc(NC(=O)CC(=O)NC4CCCC4)cc3)c2c1F [Example 201]	–
≤ 10	10 to 100	10 to 100	10 to 100	–	–	COc1cc(F)c2c(Nc3ccc(NC(=O)NCCC(C)(C)F)cc3)ncnc2c1 [Example 203]	–
10 to 100	100 to 1000	100 to 1000	–	–	–	COCCOc1cc(F)c2c(Nc3ccc(NC(=O)CCC(=O)NC(C)C)cc3)ncnc2c1 [Example 87]	–
–	100 to 1000	> 1000	> 1000	–	–	COc1cc2ncnc(Nc3ccc(NC(=O)NCCC(C)(C)C#N)cc3)c2cc1OC [Example 218]	–
10 to 100	10 to 100	100 to 1000	100 to 1000	–	–	COCCOc1ccc2c(Nc3ccc(NC(=O)CC(=O)NCC(C)(C)C)cc3)ncnc2c1 [Example 221]	–
100 to 1000	–	–	–	–	–	COCCOc1ccc2c(Nc3ccc(NC(=O)CC(=O)NCC(C)(C)C)cc3)ccnc2c1 [Example 223]	–
> 1000	> 1000	> 1000	> 1000	–	–	COCCOc1ccc2c(Nc3ccc(NC(=O)CC(=O)NCC(C)(C)C)cn3)ccnc2c1 [Example 205]	–
10 to 100	> 1000	100 to 1000	> 1000	–	–	COc1cc2ncnc(Nc3ccc(NC(=O)NCCC(C)(C)F)cc3)c2cc1OC [Example 209]	–
100 to 1000	–	–	–	–	–	COCCOc1ccc2c(Nc3ccc(NC(=O)CC(=O)NCC(C)(C)C)cn3)ncnc2c1 [Example 229]	–
100 to 1000	–	–	–	–	–	COCCOc1ccc2c(Nc3ccc(NC(=O)NCCC(C)(C)F)cn3)ncnc2c1 [Example 227]	–
10 to 100	10 to 100	10 to 100	10 to 100	–	–	COCCOc1cc(F)c2c(Nc3ccc(NC(=O)CC(=O)N4CCC[C@@H]4C(C)C)cc3)ncnc2c1 [Example 214]	–
10 to 100	> 1000	> 1000	> 1000	–	–	COc1cc2ncnc(Nc3ccc(NC(=O)NCCC(C)(C)OC)cc3)c2cc1OC [Example 210]	–
10 to 100	10 to 100	10 to 100	10 to 100	–	–	COc1cc(F)c2c(Nc3ccc(NC(=O)NCCC(C)(C)OC)cc3)ncnc2c1 [Example 202]	–
10 to 100	–	–	–	–	–	COCCCc1ccc2c(Nc3ccc(NC(=O)CC(=O)NCC(C)(C)C)cc3)cnnc2c1 [Example 193]	–
10 to 100	10 to 100	10 to 100	10 to 100	–	–	COc1cc(F)c2c(Nc3ccc(NC(=O)CC(=O)NCC(C)(C)C)cc3)ncnc2c1 [Example 211]	–
> 1000	> 1000	100 to 1000	> 1000	–	–	COCCOc1cc(F)c2c(Nc3ccc(NC(=O)C(=O)NC(C)(C)C)cc3)ncnc2c1 [Example 134]	–
